Results published in US20140162958A1, “Copolymer-1 Composition and Methods of Use” (priority 2012, published 2014).

Assays:
[1] = system: 5-hydroxytryptamine (5-HT) induced plasma extravasation; conditions: concentration of about 0.083%; cited from earlier work
[2] = format: in vivo, patient (the inventor)
Experimental: A series of compositions comprising an amount of copolymer-1 and a local anesthetic were generated in order to provide for a formulation that was substantially free of Site Reactions upon injection. Briefly, the methodology involved titrating amounts of an injectable local anesthetic (bupivacaine, 0.5%) to a solution of copolymer-1 (provided as COPAXONE®, 20 mg injectable syringe). […] This percentage of local anesthetic is well below clinical dosages typically used for skin infiltration for pain control (e.g. 0.25%). The composition was stable for over 30 days both at room temperature and when refrigerated.
The composition described in Example 1 (0.2 mL of bupivacaine (at 0.5%) added to 1.0 mL COPAXONE®, 20 mg injectable syringe) was used in this Example.
The inventor, Dr. Robbins, an anesthesiologist and pain management specialist familiar with the use of local anesthetics in procedures such as spinal epidurals, has been diagnosed with multiple sclerosis and has been prescribed COPAXONE® in order to treat the disease. […] Oral pain management (Motrin) and immediate icing of the injection site were ineffective in alleviating the pain associated with the COPAXONE® injection. […]

[3] = system: experimental autoimmune encephalomyelitis (EAE); conditions: in vivo; cited from earlier work
[4] = system: exacerbating-remitting form of multiple sclerosis; conditions: daily injections; cited from earlier work
RRMS patients = conditions: 40 mg/mL subcutaneous injection three times a week; cited from earlier work

For `CCCCN1CCCCC1C(=O)Nc1c(C)cccc1C` (stereo not drawn) [bupivacaine], the “inhibition of 5-HT induced plasma extravasation” value [1] is given as “greater than 95%”.
In the case of `CC(C)Cc1ccc(C(C)C(=O)O)cc1` (stereo not drawn) [Motrin], the “alleviation of the pain associated with the COPAXONE injection” value ([2]; oral pain management) is reported as “ineffective”.
For copolymer-1, the “suppression of EAE” value [3] is given as “suppress EAE”, the “exacerbations and increases in disability status versus control patients” value [4] is given as “fewer exacerbations and smaller increases in their disability status” and the “pain / Site Reactions associated with the treatment” value ([2]; human, in vivo) is given as “skin wheals, immediate pain upon injection and continuing post-injection pain”. For the same compound, the “primary endpoint (reducing the annualized relapse rate relative to placebo)” value (RRMS patients) was “met its primary endpoint”.
